# Test results: PMC9866728, “Dosing Methods to Enable Cell-Based In Vitro Testing of Complex Substances: A Case Study with a PAH Mixture” (Toxics, 2022)
# Several values for one entry are separate records, joined by “and”; a condition that tells them apart may be missing. Identical values can stand only once. Like-named read-outs stand apart in the source and are kept apart here.
# Assays:
# [1] = O-ring loading rate constant, larger O-rings; ref Smith et al. 2010 [24]; cited from earlier work
# [2] = bovine, 24 h
# [3] = Recovery over time from exposure to cell culture media without cells (GC-MS/MS); type: physicochemical
# [4] = Loading kinetics of silicone micro-O-rings from methanol PAH solution (GC-MS/MS); type: physicochemical; details: for K Value: loading rate constant, one-phase association (h^-1); for K Value / Plateau Value / Y0: 10 µg/mL PAH mix in methanol; for Plateau Value: one-phase association fit of nominal Csilicone (µg/mL per Eq 1); for Y0: one-phase association fit of nominal Csilicone, 0-24 h; for Half-time Value / Span Value / Tau Value: one-phase association fit, micro-O-ring absorption
# [5] = Table S1; ref PubChem; cited from earlier work
# [6] = Smith et al. O-Rings; ref Smith et al. 2010 [24]; cited from earlier work
# [7] = Protein binding: media-dissolved fraction (FMD) and unbound fraction (FUB) in cell culture media without cells (ultracentrifugation, GC-MS/MS)
# [8] = MAF (400 ng/mL each PAH), one phase decay fit of nominal recovery
# [9] = MAF (400 ng/mL each PAH), one phase decay fit of nominal recovery (text: ng/mL)
# [10] = O-Rings (loaded in 10 µg/mL PAH solution), one phase association fit of nominal recovery
# [11] = O-Rings, one phase association fit
# [12] = O-Rings, one phase association fit (desorption into media)
# [13] = Solvent Extract (DMSO, 15 ng/mL each PAH), one phase decay fit of nominal recovery
# [14] = Solvent Extract (DMSO, 15 ng/mL each PAH), one phase decay fit of nominal recovery (text: ng/mL)
# [15] = Solvent Extract, one phase decay fit
smiles,measurement,setting,value
c1ccc2c(c1)Cc1ccccc1-2 [Fluorene],Smith et al. 2010 K Value,[1],1.89
same,ISTD Resp. Ratio (Raw Data for FMD),[2]; 0.375 µg/mL,0.7014
same,ISTD Resp. Ratio (Raw Data for FMD),[2]; 10 µg/mL,0.2015
same,Y0,[3]; [8],397.4
same,Plateau,[3]; [9],50.15
same,K,"[3]; MAF, one phase decay fit",0.7944
same,Span,"[3]; MAF, one phase decay fit",347.3
same,Tau,"[3]; MAF, one phase decay fit",1.259
same,Plateau,[3]; [10],2.925
same,Y0,[3]; [10],-0.4812
same,Half-time,[3]; [11],0.4551
same,Span,[3]; [11],3.406
same,Tau,[3]; [11],0.6566
same,K,[3]; [12],1.523
same,Y0,[3]; [13],14.61
same,Plateau,[3]; [14],3.728
same,K,[3]; [15],0.435
same,Span,[3]; [15],10.88
same,Tau,[3]; [15],2.299
same,K Value,[4],26.7516
same,Plateau Value,[4],0.7821
same,Y0,[4],0
same,Half-time Value,[4],0.02591
same,Span Value,[4],0.7821
same,Tau Value,[4],0.03738
same,LogKow (PubChem),[5],4.18
c1ccc2c(c1)ccc1ccccc12 [Phenanthrene],Smith et al. 2010 K Value,[1],1.66
same,Y0,[3]; [8],398.5
same,Plateau,[3]; [9],48.89
same,K,"[3]; MAF, one phase decay fit",0.9181
same,Span,"[3]; MAF, one phase decay fit",349.6
same,Tau,"[3]; MAF, one phase decay fit",1.089
same,Plateau,[3]; [10],0.3728
same,Y0,[3]; [10],-0.1954
same,Half-time,[3]; [11],0.1645
same,Span,[3]; [11],0.5682
same,Tau,[3]; [11],0.2373
same,K,[3]; [12],4.214
same,Y0,[3]; [13],14.6
same,Plateau,[3]; [14],2.716
same,K,[3]; [15],0.502
same,Span,[3]; [15],11.89
same,Tau,[3]; [15],1.992
same,K Value,[4],29.7306
same,Plateau Value,[4],0.2434
same,Y0,[4],0
same,Half-time Value,[4],0.02331
same,Span Value,[4],0.2434
same,Tau Value,[4],0.03364
same,K,[6],1.32
same,"ISTD Resp. Ratio, stock","[7]; 0.375 ug/mL DMSO extract, 1 hr exposure block, stock reference samples STOCK_R1-R3, raw GC-MS/MS response ratio to ISTD",7.517 and 6.997 and 7.303
same,ISTD Resp. Ratio (Raw Data for FMD),"[7]; 0.375 ug/mL DMSO extract, 1 hr exposure, media-dissolved fraction, replicates DMSO_FMD_R1-R4, raw GC-MS/MS response ratio to ISTD",0.8475 and 0.7152 and 0.8128 and 0.7589
same,ISTD Resp. Ratio (Raw Data for FUB),"[7]; 0.375 ug/mL DMSO extract, 1 hr exposure, unbound fraction, replicates DMSO_FUB_R1-R4, raw GC-MS/MS response ratio to ISTD",0.02919 and 0.03368 and 0.0397 and 0.002786
same,"ISTD Resp. Ratio, stock","[7]; 0.375 ug/mL DMSO extract, 24 hr exposure block, stock samples STOCK_R1-R3, GC-MS/MS area ratio to ISTD",9.093 and 9.139 and 8.158
same,ISTD Resp. Ratio (Raw Data for FMD),"[7]; 0.375 ug/mL DMSO extract, 24 hr exposure, media-dissolved fraction samples, replicates DMSO_FMD_R2-R4, GC-MS/MS area ratio to ISTD",0.2846 and 0.2622 and 0.2363
same,ISTD Resp. Ratio (Raw Data for FMD),"[7]; 0.375 ug/mL DMSO extract, 24 hr exposure, media-dissolved fraction, replicate DMSO_FMD_R1, raw GC-MS/MS response ratio to ISTD",0.2681
same,ISTD Resp. Ratio (Raw Data for FUB),"[7]; 0.375 ug/mL DMSO extract, 24 hr exposure, unbound fraction samples, replicates DMSO_FUB_R1-R4, GC-MS/MS area ratio to ISTD",0.01396 and 0.01643 and 0.01239 and 0.00394
same,ISTD Resp. Ratio (raw data for FMD),"[7]; 10 ug/mL MAF (MAF_1H_FMD), 1 hour exposure, replicates R1-R3",58.1761 and 43.9105 and 63.6043
same,ISTD Resp. Ratio (raw data for FUB),"[7]; 10 ug/mL MAF (MAF_1H_FUB), 1 hour exposure, replicates R1-R3",0.06932 and 0.09392 and 0.08269
same,"ISTD Resp. Ratio, Raw Data for FMD (media-dissolved fraction)","[7]; 10 ug/mL MAF, 24 hour exposure, samples MAF_24H_FMD_R1-R3 (replicates), raw GC-MS/MS analyte/ISTD response ratio",34.5977 and 34.7241 and 34.153
same,"ISTD Resp. Ratio, Raw Data for FUB (unbound fraction)","[7]; 10 ug/mL MAF, 24 hour exposure, samples MAF_24H_FUB_R1-R3 (replicates), raw GC-MS/MS analyte/ISTD response ratio",0.04313 and 0.02976 and 0.1769
same,ISTD Resp. Ratio (Raw Data for FMD),"[7]; 10 ug/mL micro-O-Rings, 1 hour exposure, media-dissolved fraction samples, replicates ORINGS_1H_FMD_R1-R3, GC-MS/MS area ratio to ISTD",0.01581 and 0.07741 and 0.0739
same,ISTD Resp. Ratio (Raw Data for FUB),"[7]; 10 ug/mL micro-O-Rings, 1 hour exposure, unbound fraction samples, replicates ORINGS_1H_FUB_R1-R3, GC-MS/MS area ratio to ISTD",0.004514 and 0.0003336 and 0.01406
same,ISTD Resp. Ratio (Raw Data for FMD),"[7]; 10 ug/mL micro-O-Rings, 24 hour exposure, media-dissolved fraction samples, replicate ORINGS_24H_FMD_R1, GC-MS/MS area ratio to ISTD",0.01817
same,ISTD Resp. Ratio (raw data for FMD),"[7]; O-rings (ORINGS_24H_FMD), 24 hour exposure, media without cells, GC-MS/MS analyte/ISTD response ratio, replicates R2-R3",0.001128 and 0.05584
same,ISTD Resp. Ratio (raw data for FUB),"[7]; O-rings (ORINGS_24H_FUB), 24 hour exposure, media without cells, GC-MS/MS analyte/ISTD response ratio, replicates R1-R3",0.001509 and 0.006155 and 0.006123
same,"ISTD Resp. Ratio, stock","[7]; STOCK_10_R1-R3 (replicates) of the block 10 ug/mL MAF, 24 hr exposure, raw GC-MS/MS analyte/ISTD response ratio",241.043 and 253.185 and 249.851
same,ISTD Resp. Ratio (STOCK_10),"[7]; STOCK_10 reference samples of the 10 ug/mL MAF section, replicates R1-R3",251.693 and 253.185 and 259.309
same,ISTD Resp. Ratio (STOCK_10),"[7]; STOCK_10 reference samples of the O-rings section, replicates R1-R3",105.268 and 100.389 and 100.167
same,LogKow (PubChem),[5],4.46
